These results are taken from a melting point compilation (Tetko et al.; mined from patent text by program, amines drawn as free bases though some values may be those of a salt).

`CCNC(=O)C(=O)[C@H](Cc1ccccc1)NC(=O)[C@H](CC(C)C)NC(=O)OCCOC`: the melting point is 138 °C.

In the case of `Cn1c([N+](=O)[O-])cnc1C1=NO[C@@H]2CCCCCC[C@@H]12` (relative stereo), the melting point lay in the range of 106 to 109 °C.

Take `O=c1c(Cc2ccccc2)c(-c2ncco2)n(-c2ccccc2)c2cc(Cl)ccc12`: the melting point was 219 to 220 °C.

Compound `CCOc1ccc(C=Cc2ccc(OC(F)F)cc2)cc1` registered a melting point of 177 °C.

For the compound `CON1C(=O)CC2(CCN(C(=O)OCc3ccccc3)CC2)C1=O`, the melting point turned out to be 98 °C.

`CCN(CCCc1c[nH]c2c(F)cc(F)cc12)C1COc2c(C(N)=O)ccc(F)c2C1` (configuration not stated) displayed a melting point of 125 °C.

Regarding `Cn1ncc(N2CCCCC2)c(-c2ccccc2C=NO)c1=O`, the melting point lay in the range of 184 to 185 °C.

The compound `CCCCCCC1c2cc(CC#N)ccc2-c2ccc(CC#N)cc21` registered a melting point of 130 to 131 °C.

The compound `CSc1cn(C)c2ccsc2c1=O` gave a melting point of 171 to 174 °C.

Turning to `O=C(O)c1cnc(Cl)nc1-c1ccccc1`, the melting point was 105 to 110 °C.

With `O=c1[nH]c2cc(F)c(NCC3COc4ccccc4C3)cc2o1` (configuration not stated), the melting point was in the range of 223 to 224 °C.

With `CCCCCCCCCCCCCCCCOc1cc(CO)cc(CO)c1`, the melting point turned out to be 90 °C.

Regarding `COc1cc(-c2nc(C)c(C(=O)O)s2)cc(OC)c1OC`, the melting point was in the range of 205 to 207 °C.

As to `CC(CN1CCN(C)CC1)OC(=O)c1c[nH]c2ccccc12` (configuration not stated), the melting point amounted to 166 °C.

`c1ccc(CC23CCN(CC2)CC3)cc1` came in with a melting point of 48 °C.

The compound `O=[N+]([O-])c1ccc(SCCc2c[nH]cn2)cc1` returned a melting point of 167 to 168 °C.

Regarding `O=C(NCc1ccon1)c1ccnc(N2CCN(Cc3ccc(F)cc3)C2=O)c1`, the melting point lay in the range of 127 to 129 °C.

In turn, `CC(C)C(=O)NCCOc1ccc([N+](=O)[O-])cc1` came in with a melting point of 102 to 103 °C.

`COc1ccc(-c2csc(Nc3cc4ccccc4cn3)n2)cc1` had a melting point of 224 to 228 °C.

The compound `CC(=O)NCC[C@@H]1CCc2ccc3nn(C)c(F)c3c21` displayed a melting point of 155 to 156 °C.

Compound `O=C1c2ccccc2-c2c1c1ccccc1c(=O)n2CCNCCO` registered a melting point of 184 °C.

Regarding `CS(=O)(=O)n1cnc2cc(Cl)c(Cl)cc21`, the melting point lay within 191 to 193 °C.

`COC(=O)C1=C(C)N=C(OC)N(C(=O)Oc2ccc([N+](=O)[O-])cc2)C1c1ccc(F)c(F)c1` (configuration not stated) returned a melting point of 172 to 174 °C.

As to `CC(C)(C)OC(=O)N1CCn2c(c(C(N)=O)c(C#N)c2C2CCN(C(=O)OCc3ccccc3)CC2)C1`, the melting point is 90 °C.

`Cc1ccc(Nc2c(C)cc(Cl)cc2Cl)c(CC(=O)O)c1` returned a melting point of 137 to 141 °C.

As for `ONC(CCc1ccccc1)CCc1ccccc1`, the melting point lay within 54 to 55 °C.

`Cc1c(NC(=O)CC(C)(C)C)c(C)c2c(c1-c1ccccc1)OCC2c1ccc(C(C)C)cc1` (configuration not stated) came in with a melting point of 178 to 182 °C.

`N[C@H](C1CCCCC1)C(O)(c1ccccc1)c1ccccc1` came in with a melting point of 181 to 182 °C.

In the case of `CSc1nc(O)nn1C(C)C`, the melting point is 90 to 92 °C.

In turn, `CCCCn1c(=O)c2c(N(C)C)n[nH]c2n(Cc2ccccc2)c1=O` showed a melting point of 177 to 179 °C.

In turn, `O=C1CCC(c2ccc(NN=C(CO)c3ccccc3)cc2)=NN1` came in with a melting point of 88 to 96 °C.

With `Nc1ccc(-c2cccc([N+](=O)[O-])c2)cc1O`, the melting point fell in the range of 175 to 176 °C.

`Oc1onc(CCCc2cccc(OCc3ccccc3)c2)c1C(c1ccccc1)c1ccccc1` came in with a melting point of 89 to 90.5 °C.

As for `CCOC(=O)Oc1ccc(/C=C/C(=O)O)cc1`, the melting point lay in the range of 173 to 176 °C.

For `CCOC(=O)COc1cccc2cc(S(N)(=O)=O)sc12`, the melting point was 168 °C.

In turn, `COC(=O)CCC(=O)c1ccccc1OCC(O)CNC(C)(C)C` (configuration not stated) had a melting point of 80 to 81.5 °C.

Compound `CC12C=CC(=O)C=C1CCC1C2C(O)CC2(C)C(C(=O)CO)=CCC12` (configuration not stated) returned a melting point of 213 to 215 °C.

Compound `CC(=O)Nc1cc2cc(N)ccc2oc1=O` had a melting point of 250 to 252 °C.

With `CCOC=C1C=C(C(C)(C)C)C(=O)C(C(C)(C)C)=C1`, the melting point lay within 114 to 117 °C.

On to `COc1cc2c(cc1OC)CN(CCCCc1ccc(NC(=O)c3cnc4ccccc4n3)cc1)CC2`, for which the melting point is 144 °C.

In the case of `COc1ccc(C#CC(O)c2cccc(CN(O)C(N)=O)c2)cc1OC` (configuration not stated), the melting point came out at 146 °C.

For `O=C1CC2(CCCCC2Cc2ccccc2)S(=O)(=O)CCN1` (configuration not stated), the melting point lay within 130 to 135 °C.

On to `Nc1nc(-c2ccc([N+](=O)[O-])o2)ns1`, for which the melting point was 168 to 170 °C.

Compound `N#CC12CC3CC(CC(Cl)(C3)C1)C2` yielded a melting point of 156 to 157 °C.

Consider `CCOC(=O)C=CC=CCCC(C)C1CCC2C3CCC4CC(OC(C)=O)CCC4(C)C3CC(OC(C)=O)C12C` (configuration not stated), for which the melting point was in the range of 129 to 131 °C.

Take `CCn1cc2c(C3CC3CNC(C)=O)cccc2n1` (configuration not stated): the melting point lay in the range of 155 to 159 °C.

In turn, `CCCC1Cc2c3c(c(C)c(C)c2C1O)OC(C(=O)O)C3` (configuration not stated) gave a melting point of 161 °C.

With `CCNC1CN(c2c(F)cc3c(=O)c(C(=O)O)cn(-c4nc(N)c(F)cc4F)c3c2Br)C1`, the melting point lay within 195 to 196 °C.

Compound `CCCCCN(CCCCC)C(=O)CCCCC(=O)O` displayed a melting point of 152 °C.

`CC(C)c1ccccc1N1C(=O)CS/C1=N\C(=O)Nc1ccc(-c2nnc(-c3ccc(OC(F)(F)C(F)(F)F)cc3)o2)cc1`: the melting point is 244 to 247 °C.

`CCCn1c(=O)c2[nH]c(-c3cc(C)n(CC(=O)Nc4ccc(OC)cc4)n3)nc2n(CCC)c1=O` gave a melting point of 293 to 296 °C.

With `COCC(=O)Nc1cc(C(=O)OC)c(O)c2ncc(Cc3ccc(F)cc3)cc12`, the melting point lay within 154 to 155 °C.

As to `NCCCOc1ccc(OCc2ccccc2)cc1`, the melting point stood at 115 °C.

With `Cc1c(Cc2ccccc2)c(=O)oc2cc(OCC3=NNN(C)N3)cc(OCC3=NNN(C)N3)c12`, the melting point lay within 71 to 76 °C.

On to `Cc1ccc(C(=O)CCCOC(=O)Nc2ccccc2)cc1`, for which the melting point lay within 106 to 109 °C.

In turn, `CCNC(=O)Nc1ccc2[nH]cc(C(=O)O)c(=O)c2c1` showed a melting point of over 320 °C.

In the case of `CN(CCO)S(=O)(=O)c1cc(NC(=O)c2cnn3c(C(F)F)cc(-c4ccc(C(F)(F)F)cc4)nc23)c(Cl)s1`, the melting point was 231 °C.

Turning to `CON(C)CCNc1ncnc2nc[nH]c12`, the melting point is 168 to 170 °C.

For `CC1(C)C(C=C(Br)Br)C1C(=O)O` (configuration not stated), the melting point lay in the range of 116 to 117 °C.

`COC(=O)c1ccc(OCCCc2ccccc2)cc1O`: the melting point was 101 to 102 °C.

As for `CC(C)(C)OC(=O)NCCOc1noc2ccc(F)cc12`, the melting point was in the range of 104 to 105 °C.

Regarding `Cn1cccc1C(=O)c1cc([N+](=O)[O-])ccc1Cl`, the melting point fell in the range of 108 to 110 °C.

For `COc1c(CC#N)c2c(c3c1OC(C)(C)C3)C(c1cccc(C(=O)NC(C)(C)C(N)=O)c1)=NC(C)(C)C2`, the melting point fell in the range of 217 to 219 °C.

`CCOC(=O)CCn1cnc2c(=O)[nH]cnc21` came in with a melting point of 197 to 200 °C.

On to `CN(C(=O)c1ccc(Cn2cnc3cnccc32)cc1)C1CCCCC1`, for which the melting point was in the range of 121 to 123 °C.

Compound `CC(=O)Nc1ccc(C2=NNC(=O)Cc3cc4c(cc32)OCO4)cc1` yielded a melting point of 177 to 180 °C.

As for `COC(=O)NC=Cc1ccc(OCC(O)CNC(C)C)cc1` (configuration not stated), the melting point fell in the range of 128 to 129 °C.

As to `O=C(O)CCNC(=O)C=Cc1ccccc1`, the melting point is 140 to 144 °C.

The compound `NCc1cc(Cl)c(N=C2NCCN2)c(Cl)c1` returned a melting point of 205 to 206 °C.

As to `CN1CCC2c3[nH]c4ccccc4c3CCN2C1` (configuration not stated), the melting point was found to be 168 °C.

In turn, `O=C1c2ccccc2C(=O)N1OCc1cccs1` returned a melting point of 130 to 131 °C.

Compound `COc1cc(COc2nn(-c3ccccc3)cc2CC(=O)O)ccc1OCc1nc(-c2ccco2)oc1C` returned a melting point of 179 to 180 °C.

Turning to `O=[N+]([O-])c1ccc(SCCCCl)cc1`, the melting point was in the range of 50 to 52 °C.

`O=[N+]([O-])c1ccc2c(cnn2Cc2ccccc2[N+](=O)[O-])c1`: the melting point is 102 to 103 °C.

With `C#CCOc1cc(Oc2ccc(Cl)cc2Cl)ncn1`, the melting point stood at 107 °C.

As for `CC(C)(C)OC(=O)N[C@@H](CC1CCCCC1)[C@@H](O)[C@@H](O)CN=[N+]=[N-]`, the melting point lay in the range of 93 to 94 °C.

The compound `CCCCN1CCC(CCC(=O)c2ccc(N)nc2OC)CC1` gave a melting point of 85 to 89 °C.

For `NC(=O)c1nc2cnc3ccccc3c2[nH]1`, the melting point was 326 to 328 °C.

On to `CC(=O)Nc1ccc(-c2nc3ccccc3s2)cc1`, for which the melting point was 227 to 229 °C.

With `COCc1nccc(SCCCSc2ccc3ncc([N+](=O)[O-])n3n2)c1C`, the melting point fell in the range of 107 to 110 °C.

Consider `COC(=O)C(OCc1csc(-c2ccc(F)cc2)n1)C(=O)c1ccccc1` (configuration not stated), for which the melting point is 86 to 89 °C.

For the compound `CCOC(=O)c1ccc(OCCCN2CCN(c3ccc(Cl)nn3)CC2)cc1`, the melting point was 125 to 127 °C.

Consider `COc1ccc(Nc2nc(NC3CC3)nc(NC3CC3)n2)cc1F`, for which the melting point is 91 to 92 °C.

`Cc1ccc(OCc2ccc(OCc3nc(-c4ccccc4)oc3C)cc2)c(CC(=O)O)c1` returned a melting point of 115 to 116 °C.

As for `NC(=S)NN=C(COC(=O)Nc1ccccc1)c1ccccc1`, the melting point lay within 155 to 165 °C.

With `O=C(O)c1ccccc1Sc1cc(Cl)ccc1C(=O)O`, the melting point lay in the range of 241 to 242 °C.

`O=c1[nH]c(=O)n(C2CC(F)C(CO)O2)cc1C(I)=CI` (configuration not stated) displayed a melting point of 112 °C.

`COc1ccc(S(=O)(=O)C(C)(Cc2ccc(-c3ccccc3)cc2)C(=O)O)cc1` (configuration not stated) registered a melting point of 161 °C.

`O=C(O)Cc1ccc2c(c1)C(=O)Cc1ccccc1O2` gave a melting point of 156 to 157 °C.

Regarding `CCCCCCCCCCCCCCCCCCCCC(CCCCCCCCCCCCCC)C(=O)O` (configuration not stated), the melting point was 65 to 67 °C.

Turning to `CCCCCOc1ccc(C(=O)OC(C)C(C)OC(=O)c2ccc(OCCCCC)cc2)cc1` (configuration not stated), the melting point amounted to 52 °C.

As to `CCOC(=O)C1OC1C(=O)NCc1ccccc1` (configuration not stated), the melting point is 90 to 91 °C.

Usually melting point stands for the temperature, or range, at which the solid turns liquid.
